Data: US8916711B2, “Imidazothiazole-chalcone derivatives as potential anticancer agents and process for the preparation thereof” (Council of Scientific and Industrial Research, priority 2009, dated 2014)
Read-outs that look alike come from different tables or passages of the source.

What was measured:
Assay type in all cases: cell-based
NCI-H460 = experiment: NCI in vitro cytotoxicity (SRB, 48 h), Non-small cell lung panel; conditions: Homo sapiens, 48 h exposure
CNS cancer cell lines = experiment: NCI in vitro cytotoxicity, whole panel; conditions: Homo sapiens
MALME-3M = experiment: NCI in vitro cytotoxicity (SRB, 48 h), Melanoma panel; conditions: Homo sapiens, 48 h exposure
CCRF-CEM = experiment: NCI in vitro cytotoxicity (SRB, 48 h), Leukemia panel; conditions: Homo sapiens, 48 h exposure
SK-MEL-28 = experiment: NCI in vitro cytotoxicity (SRB, 48 h), Melanoma panel; conditions: Homo sapiens; SK-MEL-28, Melanoma; 48 h exposure
KM12 = experiment: NCI in vitro cytotoxicity (SRB, 48 h), Colon panel; conditions: Homo sapiens, 48 h exposure
[1] = system: Ovarian cancer cell lines; experiment: NCI in vitro cytotoxicity, whole panel; conditions: Homo sapiens
[2] = system: sixty human tumour cell lines; experiment: NCI in vitro cytotoxicity, all panels
SF-539 = experiment: NCI in vitro cytotoxicity (SRB, 48 h), CNS panel; conditions: Homo sapiens; SF-539, CNS; 48 h exposure
OVCAR-3 = experiment: NCI in vitro cytotoxicity (SRB, 48 h), Ovarian panel; conditions: Homo sapiens; OVCAR-3, Ovarian; 48 h exposure
EKVX = experiment: NCI in vitro cytotoxicity (SRB, 48 h), Non-small cell lung panel; conditions: Homo sapiens, 48 h exposure
Leukemia cell lines = experiment: NCI in vitro cytotoxicity, whole panel; conditions: Homo sapiens
DU-145 = experiment: NCI in vitro cytotoxicity (SRB, 48 h), Prostate panel; conditions: Homo sapiens; DU-145, Prostate; 48 h exposure
NCI-H23 = experiment: NCI in vitro cytotoxicity (SRB, 48 h), Non-small cell lung panel; conditions: Homo sapiens, 48 h exposure
A549/ATCC = experiment: as above; conditions: Homo sapiens, 48 h exposure
RXF 393 = experiment: NCI in vitro cytotoxicity (SRB, 48 h), Renal panel; conditions: Homo sapiens; RXF 393, Renal; 48 h exposure
SF-295 = experiment: NCI in vitro cytotoxicity (SRB, 48 h), CNS panel; conditions: Homo sapiens; SF-295, CNS; 48 h exposure
NCI-H226 = experiment: NCI in vitro cytotoxicity (SRB, 48 h), Non-small cell lung panel; conditions: Homo sapiens, 48 h exposure
SK-MEL-2 = experiment: NCI in vitro cytotoxicity (SRB, 48 h), Melanoma panel; conditions: Homo sapiens; SK-MEL-2, Melanoma; 48 h exposure
SR = experiment: NCI in vitro cytotoxicity (SRB, 48 h), Leukemia panel; conditions: Homo sapiens
Protocol: (§1) The imidazothiazole-chalcone hybrids 7a, 7e, 7f, 8f and 19e have been tested against sixty human tumour cell lines derived from nine cancer types (leukemia, non-small cell lung cancer, colon cancer, CNS cancer, melanoma, ovarian cancer, renal cancer, prostate cancer and breast cancer) as per NCI protocol. For each compound, dose response curves for individual cell lines have been measured at a minimum of five concentrations at 10 fold dilutions. A protocol of 48 h continuous drug exposure has been used, and a sulforhodamine B (SRB) protein assay was used to estimate cell viability or growth. The concentration for 50% cell growth inhibition (GI50), total cell growth inhibition (TGI, 0% growth) and 50% cell death (LC50, […]) compared with the control has been calculated (Table-1).

HL-60(TB) = experiment: as above; conditions: Homo sapiens, 48 h exposure
Protocol: as §1

ACHN = experiment: NCI in vitro cytotoxicity (SRB, 48 h), Renal panel; conditions: Homo sapiens, 48 h exposure
HCC-2998 = experiment: NCI in vitro cytotoxicity (SRB, 48 h), Colon panel; conditions: Homo sapiens
HOP-92 = experiment: NCI in vitro cytotoxicity (SRB, 48 h), Non-small cell lung panel; conditions: Homo sapiens; HOP-92, Non-small cell lung; 48 h exposure
TK-10 = experiment: NCI in vitro cytotoxicity (SRB, 48 h), Renal panel; conditions: Homo sapiens; TK-10, Renal; 48 h exposure
[3] = system: Non-small-cell lung cancer cell lines; experiment: NCI in vitro cytotoxicity, whole panel; conditions: Homo sapiens
UACC-25 = experiment: NCI in vitro cytotoxicity (SRB, 48 h), Melanoma panel; conditions: Homo sapiens; UACC-25, Melanoma; 48 h exposure
MOLT-4 = experiment: NCI in vitro cytotoxicity (SRB, 48 h), Leukemia panel; conditions: Homo sapiens; MOLT-4, Leukemia; 48 h exposure
NCI-H522 = experiment: NCI in vitro cytotoxicity (SRB, 48 h), Non-small cell lung panel; conditions: Homo sapiens, 48 h exposure
HCT-15 = experiment: NCI in vitro cytotoxicity (SRB, 48 h), Colon panel; conditions: Homo sapiens; HCT-15, Colon; 48 h exposure
A498 = experiment: NCI in vitro cytotoxicity (SRB, 48 h), Renal panel; conditions: Homo sapiens, 48 h exposure

COc1cc(C(=O)/C=C/c2c(C(F)(F)F)nc3sccn23)cc(OC)c1OC [Compound 7f, (E)-3-(6-(trifluoromethyl)imidazo[2,1-b]thiazol-5-yl)-1-(3,4,5-trimethoxyphenyl)prop-2-en-1-one]
GI50 (NCI-H460): 1650 nM | GI50 (CNS cancer cell lines; CNS cell, exposure period of at least 48 hrs, read-out: GI50, range over CNS cell lines): 1380 to 2670 nM | GI50 (CNS cancer cell lines; CNS, average of six to eight cell lines, read-out: Log10 GI50 (converted)): 1910 nM | CC50 (CNS cancer cell lines; CNS, average of six to eight cell lines, read-out: Log10 LC50 (converted)): 12600 nM | GI50 (MALME-3M): 1590 nM | GI50 (CCRF-CEM): 1240 nM | GI50 (SK-MEL-28): 1690 nM | GI50 (KM12): 1470 nM | GI50 ([1]; Ovarian, average of six to eight cell lines, read-out: Log10 GI50 (converted)): 2690 nM | CC50 ([1]; Ovarian, average of six to eight cell lines, read-out: Log10 LC50 (converted)): 57500 nM | GI50 ([1]; exposure period of at least 48 hrs, read-out: GI50, range over ovarian cell lines): 1860 to 3080 nM | GI50 ([2]; Homo sapiens, sixty cell lines, nine panels, read-out: GI50 against sixty cell lines in nine cell panels): < 9000 nM | Log10 TGI mean graph midpoint (MG_MID) ([2]; human tumour cell lines): −5.28 | in vitro cytotoxicity, in words ([2]; human tumour cell lines): significant cytotoxicity | GI50 ([2]; human tumour cell lines, read-out: Log10 GI50 mean graph midpoint (MG_MID) (converted)): 1910 nM | CC50 ([2]; human tumour cell lines, read-out: Log10 LC50 mean graph midpoint (MG_MID) (converted)): 19100 nM | GI50 (SF-539): 1550 nM | GI50 (OVCAR-3): 1860 nM | GI50 (EKVX): 2720 nM | GI50 (Leukemia cell lines; Leukemia, average of six to eight cell lines, read-out: Log10 GI50 (converted)): 1290 nM | CC50 (Leukemia cell lines; Leukemia, average of six to eight cell lines, read-out: Log10 LC50 (converted)): ≥ 100000 nM | GI50 (Leukemia cell lines; exposure period of at least 48 hrs, read-out: GI50, range over leukemia cell lines): 540 to 1920 nM | GI50 (DU-145): 1410 nM | GI50 (NCI-H23): 1720 nM | GI50 (A549/ATCC): 3440 nM | GI50 (RXF 393): 2020 nM | GI50 (SF-295): 2580 nM | GI50 (NCI-H226): 2170 nM | GI50 (SK-MEL-2): 2260 nM | GI50 (SR): 540 nM | GI50 (SR; 48 h exposure): 540 nM | GI50 (HL-60(TB)): 1830 nM | GI50 (ACHN): 1820 nM | GI50 (HCC-2998; HCC-2998, Colon, 48 h exposure): 1710 nM | GI50 (HCC-2998; HCC-2998, colon): 1710 nM | GI50 (HOP-92): 7000 nM | GI50 (TK-10): 2300 nM | GI50 ([3]; Non-small-cell lung, average of six to eight cell lines, read-out: Log10 GI50 (converted)): 2450 nM | CC50 ([3]; Non-small-cell lung, average of six to eight cell lines, read-out: Log10 LC50 (converted)): 26900 nM | GI50 ([3]; exposure period of at least 48 hrs, read-out: GI50, range over lung cell lines): 1650 to 7000 nM | GI50 (UACC-25): 1900 nM | GI50 (MOLT-4): 1920 nM | GI50 (NCI-H522): 2030 nM | GI50 (HCT-15): 1800 nM | GI50 (A498): 1890 nM
